For experiment [1], the target named is T1, α1β3 GABAA receptor (β3 subunit) (Homo sapiens, UniProt P14867+P28472).
T1 sequence (P28472 26-473): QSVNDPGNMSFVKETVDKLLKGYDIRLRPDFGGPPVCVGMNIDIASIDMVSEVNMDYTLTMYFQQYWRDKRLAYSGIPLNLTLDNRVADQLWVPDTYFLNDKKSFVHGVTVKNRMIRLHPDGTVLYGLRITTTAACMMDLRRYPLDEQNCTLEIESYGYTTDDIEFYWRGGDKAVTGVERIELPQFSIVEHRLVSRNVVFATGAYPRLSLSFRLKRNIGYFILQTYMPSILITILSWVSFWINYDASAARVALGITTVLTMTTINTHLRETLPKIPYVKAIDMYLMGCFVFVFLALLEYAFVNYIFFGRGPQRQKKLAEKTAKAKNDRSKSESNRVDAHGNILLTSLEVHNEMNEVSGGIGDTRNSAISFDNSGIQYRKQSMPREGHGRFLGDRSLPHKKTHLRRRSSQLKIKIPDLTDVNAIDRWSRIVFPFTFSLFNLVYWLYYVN
T1 sequence (P14867 28-456): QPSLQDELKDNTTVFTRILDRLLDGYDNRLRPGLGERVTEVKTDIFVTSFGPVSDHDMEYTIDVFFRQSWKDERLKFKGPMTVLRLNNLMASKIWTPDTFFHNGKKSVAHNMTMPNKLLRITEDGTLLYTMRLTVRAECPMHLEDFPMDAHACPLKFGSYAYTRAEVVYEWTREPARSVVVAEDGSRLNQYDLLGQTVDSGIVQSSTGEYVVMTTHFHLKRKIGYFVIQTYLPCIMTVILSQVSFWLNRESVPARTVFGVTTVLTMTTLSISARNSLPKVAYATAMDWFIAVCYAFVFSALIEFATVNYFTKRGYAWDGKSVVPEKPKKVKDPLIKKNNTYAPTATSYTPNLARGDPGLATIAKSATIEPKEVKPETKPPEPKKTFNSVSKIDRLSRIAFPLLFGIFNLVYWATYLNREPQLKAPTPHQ
As to the kind of experiment: competition of KK123, KK200 and KK202 photolabeling on β[…]; [3H]muscimol binding enhancement. Also noted: gene GABRB3; α1His-FLAG β3 receptor in HEK-293 cell membranes; with GABAA receptor α1 subunit (GABRA1).

The target in experiment [2] is T2, GABAA receptor α1 subunit (Homo sapiens, UniProt P14867).
T2 sequence (P14867 28-456): T1 sequence (P14867 28-456)
T2 sequence (P28472 26-473 partner): T1 sequence (P28472 26-473)
The experiment in a line: competition of KK123 photolabeling at α1-Y415; [3H]muscimol binding enhancement; oocyte electrophysiology with site mutants. Also noted: gene GABRA1; α1His-FLAG β3 receptor in HEK-293 cell membranes; with GABAA receptor β3 subunit (GABRB3).

The target of experiment [3] is T3, GABAA receptor β3 subunit (Homo sapiens, UniProt P28472).
T3 construct: gene GABRB3
The experiment in a line: biochemical.

Experiment [4] concerns the target T2, GABAA receptor α1 subunit. The experiment in a line: biochemical. Also noted: gene GABRA1.
The target of experiment [5] is T4, GABAA receptor β3 subunit (Homo sapiens, UniProt P14867+P28472).
T4 construct: gene GABRB3; α1His-FLAG β3 receptor in HEK-293 cell membranes; adduct in TM3 peptide 280-313; with GABAA receptor α1 subunit (GABRA1)
T4 sequence (P28472 26-473): T1 sequence (P28472 26-473)
T4 sequence (P14867 28-456): T1 sequence (P14867 28-456)
As to the kind of experiment: photoaffinity labeling with middle-down MS, competed by allopregnanolone; EC50 from [3H]muscimol binding enhancement (whole α[…]β[…] receptor).

The target in experiment [6] is T2, GABAA receptor α1 subunit. As to the kind of experiment: photoaffinity labeling ([…]) with middle-down MS; EC50 from [3H]muscimol binding enhancement (whole α[…]β[…] receptor). Also noted: gene GABRA1; α1His-FLAG β3 receptor in HEK-293 cell membranes; adduct in TM4 peptide 398-423; with GABAA receptor β3 subunit (GABRB3).
In experiment [7] the target is T5, GABAA receptor β3 subunit (Homo sapiens, UniProt P28472).
T5 construct: gene GABRB3; α1His-FLAG β3 receptor in HEK-293 cell membranes; adduct in TM3 peptide 278-313; with GABAA receptor α1 subunit (GABRA1)
T5 sequence (P28472 26-473): T1 sequence (P28472 26-473)
T5 sequence (P14867 28-456 partner): T1 sequence (P14867 28-456)
As to the kind of experiment: photoaffinity labeling with middle-down MS, competed by allopregnanolone; EC50 from [3H]muscimol binding enhancement (whole α[…]β[…] receptor).

Experiment [8] concerns the target T1, α1β3 GABAA receptor (β3 subunit). As to the kind of experiment: two-electrode voltage clamp, potentiation and direct activation. Format: cell-based. Further details: gene GABRB3; α1β3 receptors expressed in X. laevis oocytes; with GABAA receptor α1 subunit (GABRA1).

SMILES strings stand for the structures.

Consider `CC(=O)[C@H]1CC[C@H]2[C@@H]3CC[C@H]4C[C@H](O)CC[C@]4(C)[C@H]3CC[C@]12C` [AlloP, 3α-hydroxy-5α-pregnan-20-one], for which the EC50 in experiment [1] and in experiment [2] was 3900 ± 5600 nM throughout. As to `C#CCCO[C@H]1C[C@]2(C)C3CC[C@@]4(C)C(CC[C@@H]4OC)C3CC3(N=N3)C2C[C@@H]1O` (some centres unmarked) [KK123], the EC50 in experiment [3] and in experiment [4] was 1600 ± 200 nM in each case. In the case of `C[C@]12CC[C@@H](O)CC1CCC1C2CC[C@@]2(C)C1CC[C@@H]2OCc1ccc(C2(C(F)(F)F)N=N2)cc1` (some centres unmarked) [KK200], the EC50 in experiment [5] and in experiment [6] was 540 ± 180 nM in each case.

Turning to `C#CCO[C@H]1CCC2C3CCC4C[C@H](OCc5ccc(C6(C(F)(F)F)N=N6)cc5)CC[C@]4(C)C3CC[C@@]21C` (some centres unmarked) [KK202], the EC50 in experiment [7] was found to be 1100 ± 270 nM. In the case of `CC(C)c1cccc(C(C)C)c1O` [propofol], in experiment [8], the “two-electrode voltage clamp, potentiation and direct activation” value was “Propofol action was not different between the mutant and wild-type receptors, indicating a selective effect on neurosteroid action”.

For the origin of these results see PMC6424464, “Multiple functional neurosteroid binding sites on GABAA receptors” (PLoS Biology, 2019).
